target: T1, Xenopus laevis Aurora B/INCENP complex (Xenopus laevis, UniProt Q6DE08); assay: Aurora-B kinase assay (radioactive enzyme inhibition assay); format: biochemical; settings: test substance at 1 μM; percentage of the positive control (maximum value without test substance)
T1 construct: equipped at the N-terminal position with a GST tag (amino acids 60-361); GST (N, cleaved yes); made in house; host or cells: E. coli BL21 (DE3)
From the text: Example Aurora-B Kinase Assay
A radioactive enzyme inhibition assay was developed using E. coli-expressed recombinant Xenopus laevis Aurora B wild-type protein equipped at the N-terminal position with a GST tag (amino acids 60-361) in a complex with Xenopus laevis INCENP (amino acids 790-847), which is obtained from bacteria and purified. In equivalent manner a Xenopus laevis Aurora B mutant (G96V) in a complex with Xenopus laevis INCENP^790-847 may also be used.
Expression and Purification
The coding sequence for Aurora-B^60-361 from Xenopus laevis is cloned into a modified version of pGEX-6T (Amersham Biotech) via BamHI and SalI cutting sites. The vector contains two cloning cassettes which are separated by a ribosomal binding site, allowing bi-cistronic expression. In this configuration Xenopus laevis Aurora B is expressed by the first cassette, and the Xenopus laevis INCENP^790-847 is expressed by the second cassette. The resulting vector is pAUB-IN^847.
First of all the E. coli strain BL21 (DE3) is co-transformed with pUBS520 helper plasmid and pAUB-IN^847, after which protein expression is induced using 0.3 mM IPTG at an OD600 of 0.45-0.7. The expression is then continued for approx. 12-16 h at 23-25° C. with agitation.
The bacteria are then removed by centrifuging and the pellet is lysed in lysis buffer (50 mM Tris/Cl pH 7.6, 300 mM NaCl, 1 mM DTT, 1 mM EDTA, 5% glycerol, Roche Complete Protease Inhibitor tablets) using ultrasound, using 20-30 mL lysis buffer per liter of E. coli culture. The lysed material is freed from debris by centrifugation (12000 rpm, 45-60 min, JA20 rotor). The supernatant is incubated with 300 μL of equilibrated GST Sepharose Fast Flow (Amersham Biosciences) per liter of E. coli culture for 4-5 h at 4° C. Then the column material is washed with 30 volumes of lysis buffer and then equilibrated with 30 volumes of cleavage buffer (50 mM Tris/Cl pH 7.6, 150 mM NaCl, 1 mM DTT, 1 mM EDTA). To cleave the GST tag from Aurora B, 10 units of Prescission Protease (Amersham Biosciences) are used per milligram of substrate and the mixture is incubated for 16 h at 4° C. The supernatant which contains the cleavage product is loaded onto a 6 mL Resource Q column (Amersham Biosciences) equilibrated with ion exchange buffer (50 mM Tris/Cl pH 7.6, 150 mM NaCl, 1 mM DTT, 1 mM EDTA). The Aurora B/INCENP complex is caught as it flows through, then concentrated and loaded onto a Superdex 200 size exclusion chromatography (SEC) column equilibrated with SEC buffer (10 mM Tris/Cl pH 7.6, 150 mM NaCl, 1 mM DTT, 1 mM EDTA). Fractions which contain the AuroraB/INCENP complex are collected and concentrated using Vivaspin concentrators (molecular weight exclusion 3000-5000 Da) to a final concentration of 12 mg/mL. Aliquots (e.g. 240 ng/μL) for kinase assays are transferred from this stock solution into freezing buffer (50 mM Tris/Cl pH 8.0, 150 mM NaCl, 0.1 mM EDTA, 0.03% Brij-35, 10% glycerol, 1 mM DTT) and stored at −80° C.
Test substances are placed in a polypropylene dish (96 wells, Greiner #655 201), in order to cover a concentration frame of 10 μM-0.0001 μM. The final concentration of DMSO in the assay is 5%. 30 μL of protein mix (50 mM tris/Cl pH 7.5, 25 mM MgCl2, 25 mM NaCl, 167 μM ATP, 10 ng Xenopus laevis Aurora B/INCENP complex in freezing buffer) are pipetted into the 10 μl of test substance provided in 25% DMSO and this is incubated for 15 min at RT. Then 10 μL of peptide mix (100 mM tris/Cl pH 7.5, 50 mM MgCl2, 50 mM NaCl, 5 μM NaF, 5 μM DTT, 1 μCi gamma-P33-ATP [Amersham], 50 μM substrate peptide [biotin-[…] or multimers thereof, or biotin-[…] or multimers thereof, or biotin-[…]]) are added. The reaction is incubated for 75 min (ambient temperature) and stopped by the addition of 180 μL of 6.4% trichloroacetic acid and incubated for 20 min on ice. […]

T1 sequence (Q6DE08 60-361): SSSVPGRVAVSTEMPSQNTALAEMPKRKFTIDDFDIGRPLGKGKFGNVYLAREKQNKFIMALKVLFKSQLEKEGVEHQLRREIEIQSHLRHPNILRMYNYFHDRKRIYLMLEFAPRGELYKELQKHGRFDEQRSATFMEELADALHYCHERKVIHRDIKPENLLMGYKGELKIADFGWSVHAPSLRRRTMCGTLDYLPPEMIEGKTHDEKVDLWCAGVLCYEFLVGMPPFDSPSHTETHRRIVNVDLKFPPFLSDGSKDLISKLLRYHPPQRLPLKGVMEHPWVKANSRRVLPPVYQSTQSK
T1 sequence (O13024 790-847 partner limits assumed): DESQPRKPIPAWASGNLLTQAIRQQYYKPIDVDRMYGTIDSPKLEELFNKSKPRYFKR

| remaining activity at 1 µM | SMILES |
| --- | --- |
| 103% | CC(C)Nc1ncc(-c2ccc3c(c2)NC(=O)/C3=C(\NC2CCN(C)CC2)c2ccccc2)cn1 [Example 79] |
| 2.32% | COc1cc(N/C(=C2\C(=O)Nc3cc(-c4cnc(NC(C)C)nc4)ccc32)c2ccccc2)ccc1C(=O)O [Example 80] |
| 1.26% | CC(C)Nc1ncc(-c2ccc3c(c2)NC(=O)/C3=C(\Nc2ccc(C(C)(C)C(=O)O)cc2)c2ccccc2)cn1 [Example 81] |
| 5.13% | COC(=O)C(C)(C)c1ccc(N/C(=C2\C(=O)Nc3cc(-c4cnc(NC(C)C)nc4)ccc32)c2ccccc2)cc1 [Example 82] |
| 1.04% | CC(C)Nc1ncc(-c2ccc3c(c2)NC(=O)/C3=C(\Nc2ccc(C(=O)O)cc2)c2ccccc2)cn1 [Example 83] |
| 65.2% | COC(=O)c1ccc(N/C(=C2\C(=O)Nc3cc(-c4cnc(NC(C)C)nc4)ccc32)c2ccccc2)cc1 [Example 84] |
| 50.3% | CNc1ccc(N/C(=C2\C(=O)Nc3cc(-c4cnc(NC(C)C)nc4)ccc32)c2ccccc2)cc1 [Example 85] |
| 16.8% | CC(C)Nc1ncc(-c2ccc3c(c2)NC(=O)/C3=C(\Nc2ccc(N3CCN(C)CC3)nc2)c2ccccc2)cn1 [Example 86] |
| 2.67% | Cc1cc(N/C(=C2\C(=O)Nc3cc(-c4cnc(NC(C)C)nc4)ccc32)c2ccccc2)ccn1 [Example 87] |
| 3.13% | CC(C)Nc1ncc(-c2ccc3c(c2)NC(=O)/C3=C(\Nc2ccc(OCCN3CCCC3)cc2)c2ccccc2)cn1 [Example 88] |
| 5.97% | CC(C)Nc1ncc(-c2ccc3c(c2)NC(=O)/C3=C(\Nc2ccc(OCCCN(C)C)cc2)c2ccccc2)cn1 [Example 89] |
| 9.48% | CC(C)Nc1ncc(-c2ccc3c(c2)NC(=O)/C3=C(\Nc2cccc(CN3CCCC3)c2)c2ccccc2)cn1 [Example 91] |
| 3.85% | CC(C)Nc1ncc(-c2ccc3c(c2)NC(=O)/C3=C(\Nc2ccc(N3CCN(C)CC3)cc2)c2ccccc2)cn1 [Example 92] |
| 2.92% | CC(C)Nc1ncc(-c2ccc3c(c2)NC(=O)/C3=C(\Nc2ccc(N3CCN(C)[C@@H](C)C3)cc2)c2ccccc2)cn1 [Example 93] |
| 5.83% | CC(C)Nc1ncc(-c2ccc3c(c2)NC(=O)/C3=C(\Nc2ccc3c(c2)CN(C)C3)c2ccccc2)cn1 [Example 94] |
| 4.64% | CC(C)Nc1ccc(-c2ccc3c(c2)NC(=O)/C3=C(\Nc2ccc(C(C)(C)C(=O)N3CCN[C@@H](C)C3)cc2)c2ccccc2)cn1 [Example 99] |
| 3.36% | CC(C)Nc1ccc(-c2ccc3c(c2)NC(=O)/C3=C(\Nc2ccc(C(C)(C)C(=O)N3CC[C@H](N(C)C)C3)cc2)c2ccccc2)cn1 [Example 100] |
| 3.62% | CC(C)Nc1ccc(-c2ccc3c(c2)NC(=O)/C3=C(\Nc2ccc(C(C)(C)C(=O)N3CC[C@@H](N(C)C)C3)cc2)c2ccccc2)cn1 [Example 101] |
| 2.07% | CC(C)Nc1ccc(-c2ccc3c(c2)NC(=O)/C3=C(\Nc2ccc(C(C)(C)C(=O)NC3CCN(C)CC3)cc2)c2ccccc2)cn1 [Example 102] |
| 3.84% | CC(C)Nc1ccc(-c2ccc3c(c2)NC(=O)/C3=C(\Nc2ccc(C(C)(C)C(=O)N(C)C3CCN(C)CC3)cc2)c2ccccc2)cn1 [Example 103] |
| 1.71% | CCN1CCC2(CCN(C(=O)c3ccc(N/C(=C4\C(=O)Nc5cc(-c6ccc(NC(C)C)nc6)ccc54)c4ccccc4)cc3OC)C2)C1 (centres unmarked) [Example 104] |

| remaining activity at 1 µM | SMILES |
| --- | --- |
| 1.57% | COc1cc(N/C(=C2\C(=O)Nc3cc(-c4ccc(NC(C)C)nc4)ccc32)c2ccccc2)ccc1C(=O)N1CCCN(C)CC1 [Example 105] |
| 2.94% | COc1cc(N/C(=C2\C(=O)Nc3cc(-c4ccc(NC(C)C)nc4)ccc32)c2ccccc2)ccc1C(=O)N1CCN(C(C)C)CC1 [Example 106] |
| 1.66% | COc1cc(N/C(=C2\C(=O)Nc3cc(-c4ccc(NC(C)C)nc4)ccc32)c2ccccc2)ccc1C(=O)N1CCC(N(C)C)CC1 [Example 107] |
| 1.45% | COc1cc(N/C(=C2\C(=O)Nc3cc(-c4ccc(NC(C)C)nc4)ccc32)c2ccccc2)ccc1C(=O)N1C[C@H]2C[C@@H]1CN2C [Example 108] |
| 2.08% | COc1cc(N/C(=C2\C(=O)Nc3cc(-c4ccc(NC(C)C)nc4)ccc32)c2ccccc2)ccc1C(=O)N1CCN(C)CC1 [Example 109] |
| 1.54% | COc1cc(N/C(=C2\C(=O)Nc3cc(-c4ccc(NC(C)C)nc4)ccc32)c2ccccc2)ccc1C(=O)N1CC[C@H](N(C)C)C1 [Example 110] |
| 2.35% | COc1cc(N/C(=C2\C(=O)Nc3cc(-c4ccc(NC(C)C)nc4)ccc32)c2ccccc2)ccc1C(=O)N(C)CCN(C)C [Example 111] |
| 1.7% | COc1cc(N/C(=C2\C(=O)Nc3cc(-c4ccc(NC(C)C)nc4)ccc32)c2ccccc2)ccc1C(=O)N(C)C1CCN(C)CC1 [Example 112] |
| 4.25% | CCN1CCN(C(=O)c2ccc(N/C(=C3\C(=O)Nc4cc(-c5ccc(NC(C)C)nc5)ccc43)c3ccccc3)cc2)CC1 [Example 113] |
| 7.11% | CC(C)CN1CCN(C(=O)c2ccc(N/C(=C3\C(=O)Nc4cc(-c5ccc(NC(C)C)nc5)ccc43)c3ccccc3)cc2)CC1 [Example 114] |
| 3.25% | CC(C)Nc1ccc(-c2ccc3c(c2)NC(=O)/C3=C(\Nc2ccc(C(=O)N3CCN[C@H](C)C3)cc2)c2ccccc2)cn1 [Example 115] |
| 3.03% | CCN1CCC2(CCN(C(=O)c3ccc(N/C(=C4\C(=O)Nc5cc(-c6ccc(NC(C)C)nc6)ccc54)c4ccccc4)cc3)C2)C1 (centres unmarked) [Example 117] |
| 4.44% | CC(C)Nc1ccc(-c2ccc3c(c2)NC(=O)/C3=C(\Nc2ccc(C(=O)N3CCN(CC4CC4)CC3)cc2)c2ccccc2)cn1 [Example 118] |
| 3.54% | CC(C)Nc1ccc(-c2ccc3c(c2)NC(=O)/C3=C(\Nc2ccc(C(=O)N3CCCN(C4CC4)CC3)cc2)c2ccccc2)cn1 [Example 119] |
| 2.75% | CC(C)Nc1ccc(-c2ccc3c(c2)NC(=O)/C3=C(\Nc2ccc(C(=O)N3CCCN(C)CC3)cc2)c2ccccc2)cn1 [Example 120] |
| 3.31% | CC(C)Nc1ccc(-c2ccc3c(c2)NC(=O)/C3=C(\Nc2ccc(C(=O)N3CCC(N4CCOCC4)CC3)cc2)c2ccccc2)cn1 [Example 121] |
| 4% | CC(C)Nc1ccc(-c2ccc3c(c2)NC(=O)/C3=C(\Nc2ccc(C(=O)N3CCC(N4CCCC4)CC3)cc2)c2ccccc2)cn1 [Example 122] |
| 2.69% | CC(C)Nc1ccc(-c2ccc3c(c2)NC(=O)/C3=C(\Nc2ccc(C(=O)N3CCN(C(C)C)CC3)cc2)c2ccccc2)cn1 [Example 123] |
| 3.38% | CC(C)Nc1ccc(-c2ccc3c(c2)NC(=O)/C3=C(\Nc2ccc(C(=O)N3C[C@@H](C)N[C@@H](C)C3)cc2)c2ccccc2)cn1 [Example 124] |
| 8.83% | CC(C)Nc1ccc(-c2ccc3c(c2)NC(=O)/C3=C(\Nc2ccc(C(=O)N3CCN(CC(F)(F)F)CC3)cc2)c2ccccc2)cn1 [Example 125] |

Source: US8853420B2, “Compounds” (Boehringer Ingelheim International GmbH, priority 2008, dated 2014)
